Measured values from patent publication US6777440B2, “HIV integrase inhibitors” (Bristol-Myers Squibb Company, priority 2001, dated 2004).

Tested on: not given
Experiment: not given
Details: not given

SMILES	melting point
CON(Cc1ccccc1)C(=O)/C=C1\OC(C)(C)OC1=O	109 to 110 °C
CON(Cc1ccc(Cl)cc1)C(=O)/C=C1\OC(C)(C)OC1=O	129 to 130 °C
CCON(Cc1ccc(F)cc1)C(=O)/C=C1\OC(C)(C)OC1=O	95 to 96 °C
CC(C)CON(Cc1ccc(F)cc1)C(=O)/C=C1\OC(C)(C)OC1=O	105 to 106 °C
CON(Cc1ccc(F)c(Br)c1)C(=O)/C=C1\OC(C)(C)OC1=O	117 to 119 °C
CON(Cc1ccccc1C)C(=O)/C=C1\OC(C)(C)OC1=O	96 to 97 °C
COc1ccc(CN(OC)C(=O)/C=C2\OC(C)(C)OC2=O)cc1	113 to 114 °C
CON(Cc1ccc(F)cc1F)C(=O)/C=C1\OC(C)(C)OC1=O	120 to 125 °C
COC(=O)c1ccc(CN(OC)C(=O)/C=C2\OC(C)(C)OC2=O)cc1	120 °C
CC1(C)OC(=O)/C(=C/C(=O)N(Cc2ccccc2)OCc2ccccc2)O1	107 to 108 °C
CC(C)(C)OC(=O)CON(Cc1ccc(F)cc1)C(=O)/C=C1\OC(C)(C)OC1=O	119 to 120 °C
CON(Cc1ccc(C#N)cc1)C(=O)/C=C1\OC(C)(C)OC1=O	148 to 149 °C
CON(Cc1ccc(NC(C)=O)cc1)C(=O)/C=C1\OC(C)(C)OC1=O	212 to 215 °C (dec.)
CON(Cc1ccc(C)cc1)C(=O)/C=C(\O)C(=O)O	108 to 111 °C (dec.)
CON(Cc1ccc(C)cc1)C(=O)/C=C1\OC(C)(C)OC1=O	108 to 110 °C
CON(Cc1ccc(F)c(C)c1)C(=O)/C=C(\O)C(=O)O	120 to 122 °C
CON(Cc1ccc(F)c(C)c1)C(=O)/C=C1\OC(C)(C)OC1=O	107 to 108 °C
CON(Cc1ccc(C)c(F)c1)C(=O)/C=C(\O)C(=O)O	99 °C
CON(Cc1ccc(C)c(F)c1)C(=O)/C=C1\OC(C)(C)OC1=O	131 °C

SMILES	melting point
CON(Cc1ccc(C(F)(F)F)cc1)C(=O)/C=C(\O)C(=O)O	108 to 110 °C
CON(Cc1ccc(C(F)(F)F)cc1)C(=O)/C=C1\OC(C)(C)OC1=O	110 °C
CON(Cc1ccc(F)cc1C(F)(F)F)C(=O)/C=C1\OC(C)(C)OC1=O	129 to 130 °C
CON(Cc1ccc(F)cc1Cl)C(=O)/C=C(\O)C(=O)O	140 to 143 °C
CON(Cc1ccc(F)cc1Cl)C(=O)/C=C1\OC(C)(C)OC1=O	127 to 128 °C
CON(Cc1ccccc1OC(C)C)C(=O)/C=C1\OC(C)(C)OC1=O	103 °C
CON(Cc1ccc(C(=O)O)cc1)C(=O)/C=C(\O)C(=O)O	123 to 125 °C
CON(Cc1ccc(C(=O)OC(C)(C)C)cc1)C(=O)/C=C1\OC(C)(C)OC1=O	137 to 138 °C
CON(Cc1ccc(C(=O)O)cc1)C(=O)/C=C1\OC(C)(C)OC1=O	217 to 219 °C
CON(CCCc1ccc(F)cc1)C(=O)/C=C(\O)C(=O)O	86 °C (dec.)
CON(CCCc1ccc(F)cc1)C(=O)/C=C1\OC(C)(C)OC1=O	90 to 91 °C
CON(CCCc1ccc(Cl)c(Cl)c1)C(=O)/C=C(\O)C(=O)O	106 °C (dec.)
CON(CCCc1ccc(Cl)c(Cl)c1)C(=O)/C=C1\OC(C)(C)OC1=O	105 to 106 °C
CC(C)(C)OC(=O)CON(Cc1ccc(Cl)c(Cl)c1)C(=O)/C=C1\OC(C)(C)OC1=O	127 to 129 °C
CN(C)CCON(Cc1ccc(F)cc1)C(=O)/C=C1\OC(C)(C)OC1=O	95 to 96 °C
CC1(C)OC(=O)/C(=C/C(=O)N(Cc2ccc(Cl)c(Cl)c2)OCc2ccccc2)O1	113 to 116 °C
CON(Cc1cccc(F)c1)C(=O)/C=C1\OC(C)(C)OC1=O	110 to 111 °C
CON(Cc1ccccc1F)C(=O)/C=C1\OC(C)(C)OC1=O	109 to 111 °C
CON(CCc1ccc(F)cc1)C(=O)/C=C1\OC(C)(C)OC1=O	106 to 107 °C

Biological target: T1, HIV-integrase (Human immunodeficiency virus type 1 group M subtype B, UniProt P04585)
T1 construct: 0.26 ng of recombinant integrase was incubated with the beads
Experiment: HIV-integrase inhibition activity (SPA bead strand-transfer assay)
Format: biochemical
Details: 50 μM compound; recombinant integrase
Description: For each reaction, 5 pmole of biotin labled substrate DNA was bound to 100 ug of Streptavidin coated PVT SPA beads (Amersham Pharmacia Biotech). 0.26 ng of recombinant integrase was incubated with the beads for 90 min at 37° C. Unbound enzyme was removed by washing the complex followed by addition of inhibitors and 0.1 fmol of P33 labeled target DNA. Reaction was stopped by adding EDTA to a final concentration of 10 mM. Samples were counted in TopCountNXT (Packard) and the CPM was used as a measure of integration. Reaction condition was as described in A. Engelman and R. Craigie, J. Virol. 69, 5908-5911 (1995). The sequences of substrate and target DNA were described in Nucleic Acid Research 22, 1121-1122 (1994). Compounds of this invention tested in this assay have IC50's of approximately 0.01 to 50 μM

SMILES	inhibition at 50 µM [%]
CON(Cc1ccccc1)C(=O)/C=C(\O)C(=O)O [Compound 1, 3-(Benzyl-methoxy-carbamoyl)-2-hydroxy-acrylic acid]	99
O=C(O)/C(O)=C/C(=O)N(Cc1ccccc1)OCc1ccccc1 [Compound 2, 3-(Benzyl-benzyloxy-carbamoyl)-2-hydroxy-acrylic acid]	99.9
O=C(O)/C(O)=C/C(=O)N(Cc1ccc(Cl)c(Cl)c1)OCc1ccccc1 [Compound 6, 3-[Benzyloxy-(3,4-dichloro-benzyl)-carbamoyl]-2-hydroxy-acrylic acid]	99.9
CON(Cc1cccc(F)c1)C(=O)/C=C(\O)C(=O)O [Compound 7, 3[(3-Fluoro-benzyl)-methoxy-carbamoyl]-2-hydroxy-acrylic acid]	99.9
CON(Cc1ccccc1F)C(=O)/C=C(\O)C(=O)O [Compound 8, 3-[(2-Fluoro-benzyl)-methoxy-carbamoyl]-2-hydroxy-acrylic acid]	99.9
CON(Cc1ccc(Cl)cc1)C(=O)/C=C(\O)C(=O)O [Compound 10, 3-[(4-Chloro-benzyl)-methoxy-carbamoyl]-2-hydroxy-acrylic acid]	99.9
O=C(O)/C(O)=C/C(=O)N(Cc1ccc(F)cc1)OCC(=O)N1CCOCC1 [Compound 62]	> 99
CN(CCCN1c2ccccc2CCc2ccccc21)C(=O)CON(Cc1ccc(F)cc1)C(=O)/C=C(\O)C(=O)O [Compound 63]	> 99
CC(NC(=O)CON(Cc1ccc(F)cc1)C(=O)/C=C(\O)C(=O)O)c1ccccc1 (stereo not drawn) [Compound 64]	> 99
O=C(CON(Cc1ccc(F)cc1)C(=O)/C=C(\O)C(=O)O)NCc1ccc(F)cc1 [Compound 65]	> 99
O=C(CON(Cc1ccc(F)cc1)C(=O)/C=C(\O)C(=O)O)NCc1ccc(Cl)cc1 [Compound 66]	> 99
COc1ccc(CNC(=O)CON(Cc2ccc(F)cc2)C(=O)/C=C(\O)C(=O)O)cc1 [Compound 67]	> 99
Cc1ccc(CNC(=O)CON(Cc2ccc(F)cc2)C(=O)/C=C(\O)C(=O)O)cc1 [Compound 68]	> 99
O=C(CON(Cc1ccc(F)cc1)C(=O)/C=C(\O)C(=O)O)NCc1ccc(C(F)(F)F)cc1 [Compound 69]	> 99
CC(NC(=O)CON(Cc1ccc(F)cc1)C(=O)/C=C(\O)C(=O)O)c1ccc(F)cc1 (stereo not drawn) [Compound 70]	> 99
CN(CCCC(c1ccc(Cl)cc1)c1ccc(Cl)cc1)C(=O)CON(Cc1ccc(F)cc1)C(=O)/C=C(\O)C(=O)O [Compound 71]	> 99
CCCCN(Cc1ccccc1)C(=O)CON(Cc1ccc(F)cc1)C(=O)/C=C(\O)C(=O)O [Compound 72]	> 99
CCCN(CC1CC1)C(=O)CON(Cc1ccc(F)cc1)C(=O)/C=C(\O)C(=O)O [Compound 73]	> 99
CC(C)CN(CC(C)C)C(=O)CON(Cc1ccc(F)cc1)C(=O)/C=C(\O)C(=O)O [Compound 74]	> 99
CCCCCCN(CCCCCC)C(=O)CON(Cc1ccc(F)cc1)C(=O)/C=C(\O)C(=O)O [Compound 75]	> 99
O=C(O)/C(O)=C/C(=O)N(Cc1ccc(F)cc1)OCC(=O)N(C1CCCCC1)C1CCCCC1 [Compound 76]	> 99
CC(=O)N1CCCN(C(=O)CON(Cc2ccc(F)cc2)C(=O)/C=C(\O)C(=O)O)CC1 [Compound 77]	> 99
